The subject of one data set is HeLa. Nature of the data set: ATP-based viability loss in HeLa cells – cell-based, CellTiter-Glo luminescence, cherry-pick samples, cytotoxicity control for MITF activator project, dose response (AID 540259). Format: functional. The note with it: Homo sapiens. (In general: In ATP-based viability assays light output follows the ATP content of the culture.)
Another data set relates to Escherichia coli. Nature of the data set: microbe, parasite or virus in culture.
In another data set the target is T1, Cytochrome P450 1A2 (Homo sapiens, UniProt P05177).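 Also: PubChem cytochrome P450 panel assay, CYP1A2 panel member.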
T1 sequence (P05177 whole entry): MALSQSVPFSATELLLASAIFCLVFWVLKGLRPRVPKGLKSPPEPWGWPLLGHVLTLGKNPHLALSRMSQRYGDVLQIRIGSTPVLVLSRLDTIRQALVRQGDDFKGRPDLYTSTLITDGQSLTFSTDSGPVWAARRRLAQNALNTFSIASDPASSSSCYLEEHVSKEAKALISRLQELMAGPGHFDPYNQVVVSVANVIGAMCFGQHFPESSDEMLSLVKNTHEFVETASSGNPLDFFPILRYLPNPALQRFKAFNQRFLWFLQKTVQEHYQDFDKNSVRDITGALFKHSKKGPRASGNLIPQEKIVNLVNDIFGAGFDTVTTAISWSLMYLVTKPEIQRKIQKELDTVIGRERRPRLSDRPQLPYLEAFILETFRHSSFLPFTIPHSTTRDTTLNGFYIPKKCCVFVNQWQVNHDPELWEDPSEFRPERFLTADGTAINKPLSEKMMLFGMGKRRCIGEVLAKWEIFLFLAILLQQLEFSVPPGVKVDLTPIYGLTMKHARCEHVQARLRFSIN

The next data set deals with Cytochrome P450 3A4 (Homo sapiens, UniProt P08684).
Chain of Cytochrome P450 3A4 (P08684 whole entry): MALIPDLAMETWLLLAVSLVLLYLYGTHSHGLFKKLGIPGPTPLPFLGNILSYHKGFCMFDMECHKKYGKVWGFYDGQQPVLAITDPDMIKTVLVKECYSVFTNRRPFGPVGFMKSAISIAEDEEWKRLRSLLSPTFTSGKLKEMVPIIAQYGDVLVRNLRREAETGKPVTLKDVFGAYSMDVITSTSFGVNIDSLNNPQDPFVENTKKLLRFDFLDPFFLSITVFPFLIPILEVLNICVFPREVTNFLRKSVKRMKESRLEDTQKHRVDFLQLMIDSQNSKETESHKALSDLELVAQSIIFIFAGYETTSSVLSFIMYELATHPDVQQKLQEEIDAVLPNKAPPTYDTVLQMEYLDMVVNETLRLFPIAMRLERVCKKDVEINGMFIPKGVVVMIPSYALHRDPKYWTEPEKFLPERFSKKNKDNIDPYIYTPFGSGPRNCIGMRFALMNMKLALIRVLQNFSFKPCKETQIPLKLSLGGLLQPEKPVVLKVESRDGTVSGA
The target in a further data set is Cytochrome P450 2C19 (Homo sapiens, UniProt P33261). Nature of the data set: Cytochrome panel assay with activity outcomes. Panel member name: p450-cyp2c19 Compounds with AC50 equal or less than 10 uM are considered active. The format is functional.
Chain of Cytochrome P450 2C19 (P33261 whole entry): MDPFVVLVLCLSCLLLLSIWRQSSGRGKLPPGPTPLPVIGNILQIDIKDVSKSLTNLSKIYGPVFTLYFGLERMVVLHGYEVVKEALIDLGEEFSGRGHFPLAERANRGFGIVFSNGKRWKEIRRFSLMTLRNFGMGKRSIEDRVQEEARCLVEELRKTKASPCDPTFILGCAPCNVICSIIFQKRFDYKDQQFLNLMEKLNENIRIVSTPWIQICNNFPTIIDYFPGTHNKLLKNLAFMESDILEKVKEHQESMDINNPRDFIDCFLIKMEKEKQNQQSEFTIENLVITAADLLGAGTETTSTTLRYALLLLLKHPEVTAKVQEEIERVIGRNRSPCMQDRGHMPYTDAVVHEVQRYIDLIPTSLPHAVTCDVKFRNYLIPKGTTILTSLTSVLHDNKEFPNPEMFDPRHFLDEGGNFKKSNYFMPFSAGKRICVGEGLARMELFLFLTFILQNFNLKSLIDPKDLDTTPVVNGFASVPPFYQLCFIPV
A further data set deals with T2, Exodeoxyribonuclease V (Escherichia coli (strain K12), UniProt P04993+P07648+P08394).
T2 sequence (P04993 whole entry): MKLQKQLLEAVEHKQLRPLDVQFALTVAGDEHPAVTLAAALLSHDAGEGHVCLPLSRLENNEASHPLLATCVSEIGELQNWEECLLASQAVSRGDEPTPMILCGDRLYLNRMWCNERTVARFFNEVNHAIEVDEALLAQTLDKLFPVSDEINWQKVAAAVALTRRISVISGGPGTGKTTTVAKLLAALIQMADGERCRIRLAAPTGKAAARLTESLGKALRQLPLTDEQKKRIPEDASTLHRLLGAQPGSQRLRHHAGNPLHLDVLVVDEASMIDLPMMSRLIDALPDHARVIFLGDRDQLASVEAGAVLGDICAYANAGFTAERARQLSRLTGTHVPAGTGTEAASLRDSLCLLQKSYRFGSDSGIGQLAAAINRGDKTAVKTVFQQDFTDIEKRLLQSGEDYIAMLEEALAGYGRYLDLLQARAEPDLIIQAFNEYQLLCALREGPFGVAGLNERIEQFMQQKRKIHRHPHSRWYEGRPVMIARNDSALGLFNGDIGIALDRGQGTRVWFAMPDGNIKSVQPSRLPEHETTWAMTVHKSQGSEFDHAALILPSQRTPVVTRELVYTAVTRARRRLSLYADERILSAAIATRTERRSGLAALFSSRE
T2 sequence (P07648 whole entry): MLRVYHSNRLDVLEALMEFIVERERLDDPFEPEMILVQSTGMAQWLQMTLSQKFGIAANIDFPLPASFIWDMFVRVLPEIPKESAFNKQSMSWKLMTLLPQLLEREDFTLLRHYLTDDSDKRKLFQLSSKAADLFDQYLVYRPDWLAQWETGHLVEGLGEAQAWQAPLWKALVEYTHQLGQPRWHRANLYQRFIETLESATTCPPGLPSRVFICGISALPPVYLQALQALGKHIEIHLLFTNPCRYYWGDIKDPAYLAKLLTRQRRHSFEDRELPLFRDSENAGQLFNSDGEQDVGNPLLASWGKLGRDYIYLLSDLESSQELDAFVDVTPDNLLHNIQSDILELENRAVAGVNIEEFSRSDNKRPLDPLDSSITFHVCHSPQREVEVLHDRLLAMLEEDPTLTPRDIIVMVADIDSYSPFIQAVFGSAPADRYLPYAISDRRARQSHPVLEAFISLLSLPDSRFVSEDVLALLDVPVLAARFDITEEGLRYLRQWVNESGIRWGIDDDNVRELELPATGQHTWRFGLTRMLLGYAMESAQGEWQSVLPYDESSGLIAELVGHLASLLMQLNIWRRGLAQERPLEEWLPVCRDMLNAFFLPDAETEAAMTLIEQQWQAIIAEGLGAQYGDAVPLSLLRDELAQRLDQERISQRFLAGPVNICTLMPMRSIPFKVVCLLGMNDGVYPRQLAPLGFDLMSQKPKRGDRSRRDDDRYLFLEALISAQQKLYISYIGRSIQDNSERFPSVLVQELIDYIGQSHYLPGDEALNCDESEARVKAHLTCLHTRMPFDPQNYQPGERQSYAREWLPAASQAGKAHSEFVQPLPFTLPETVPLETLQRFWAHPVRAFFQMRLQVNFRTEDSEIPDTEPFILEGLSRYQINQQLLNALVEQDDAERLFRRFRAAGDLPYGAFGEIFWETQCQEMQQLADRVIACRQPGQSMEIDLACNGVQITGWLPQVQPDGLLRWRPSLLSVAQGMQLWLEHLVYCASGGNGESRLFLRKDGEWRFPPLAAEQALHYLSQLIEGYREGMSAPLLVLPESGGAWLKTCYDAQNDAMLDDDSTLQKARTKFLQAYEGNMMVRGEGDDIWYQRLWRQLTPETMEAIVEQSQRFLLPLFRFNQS
T2 sequence (P08394 whole entry): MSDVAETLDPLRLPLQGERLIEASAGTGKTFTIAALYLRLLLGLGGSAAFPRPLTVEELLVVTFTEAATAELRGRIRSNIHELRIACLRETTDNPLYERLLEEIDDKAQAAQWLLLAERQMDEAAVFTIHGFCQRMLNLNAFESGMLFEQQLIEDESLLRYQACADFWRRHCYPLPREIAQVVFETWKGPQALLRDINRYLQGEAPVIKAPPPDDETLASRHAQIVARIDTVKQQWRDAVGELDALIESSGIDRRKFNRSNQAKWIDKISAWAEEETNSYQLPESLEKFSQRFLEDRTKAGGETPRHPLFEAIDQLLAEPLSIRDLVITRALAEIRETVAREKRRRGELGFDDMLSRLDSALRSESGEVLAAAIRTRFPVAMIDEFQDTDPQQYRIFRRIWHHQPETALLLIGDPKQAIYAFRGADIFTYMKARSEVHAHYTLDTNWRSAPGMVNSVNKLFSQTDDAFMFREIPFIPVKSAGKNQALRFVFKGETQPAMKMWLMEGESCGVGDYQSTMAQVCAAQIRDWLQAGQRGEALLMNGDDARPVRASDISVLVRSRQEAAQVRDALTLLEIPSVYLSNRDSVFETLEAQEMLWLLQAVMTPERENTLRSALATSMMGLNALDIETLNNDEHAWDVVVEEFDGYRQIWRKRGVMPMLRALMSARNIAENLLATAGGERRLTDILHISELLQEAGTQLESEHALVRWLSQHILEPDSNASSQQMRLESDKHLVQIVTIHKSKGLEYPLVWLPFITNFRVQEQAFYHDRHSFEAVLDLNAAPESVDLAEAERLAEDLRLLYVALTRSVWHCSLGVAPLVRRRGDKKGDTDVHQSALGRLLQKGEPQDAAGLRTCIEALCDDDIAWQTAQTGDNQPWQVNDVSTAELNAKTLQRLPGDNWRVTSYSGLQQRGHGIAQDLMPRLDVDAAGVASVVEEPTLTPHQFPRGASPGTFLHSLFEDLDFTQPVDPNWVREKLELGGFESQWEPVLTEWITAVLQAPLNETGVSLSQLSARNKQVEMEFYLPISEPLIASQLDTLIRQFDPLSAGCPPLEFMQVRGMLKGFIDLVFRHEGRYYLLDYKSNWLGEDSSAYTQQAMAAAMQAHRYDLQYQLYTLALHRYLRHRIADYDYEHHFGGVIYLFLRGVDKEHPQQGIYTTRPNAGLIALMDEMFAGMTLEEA
Nature of the data set: RecBCD inhibition via phage-restricted bacterial growth – absorbance, V66 E. coli, mutant T4 phage, counter-screen for AddAB inhibitor project, dose response (AID 492957). The format is functional, cell-based, Escherichia coli str. K-12 substr. MG1655. On the technique in general: Counterscreens check selectivity or assay interference.

Data set [1] is described as follows: Counterscreen for AddAB inhibitors: absorbance-based bacterial cell-based high throughput dose response assay for inhibitors of bacterial viability. [Related pubchem assays (depositor defined):AID435030, AID449728, AID449731, AID488942, AID488955, AID488956]. The format is functional.
The subject of data set [2] is HEK293. The data set is described as follows: cells. The settings on record: Homo sapiens.
The test system of data set [3] is HEK293. Nature of the data set: cells. The settings on record: Homo sapiens. This is another data set of the same source.
For a further data set, the target named is Cytochrome P450 2C9 (Homo sapiens, UniProt P11712).
Chain of Cytochrome P450 2C9 (P11712 whole entry): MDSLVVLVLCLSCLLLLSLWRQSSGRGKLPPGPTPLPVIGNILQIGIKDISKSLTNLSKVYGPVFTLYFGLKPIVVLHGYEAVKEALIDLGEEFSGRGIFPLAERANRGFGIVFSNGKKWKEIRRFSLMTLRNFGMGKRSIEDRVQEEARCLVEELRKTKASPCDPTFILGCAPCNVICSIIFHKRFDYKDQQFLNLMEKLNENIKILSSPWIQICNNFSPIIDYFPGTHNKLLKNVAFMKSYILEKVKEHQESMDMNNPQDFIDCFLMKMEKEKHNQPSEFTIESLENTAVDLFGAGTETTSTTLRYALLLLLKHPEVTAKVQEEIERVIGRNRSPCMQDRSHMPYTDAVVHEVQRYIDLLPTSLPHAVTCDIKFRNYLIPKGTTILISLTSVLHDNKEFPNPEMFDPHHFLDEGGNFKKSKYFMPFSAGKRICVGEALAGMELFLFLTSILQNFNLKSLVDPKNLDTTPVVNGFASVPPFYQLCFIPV
In another data set the target is Paired box protein Pax-8 (Homo sapiens, UniProt Q06710). The data set is described as follows: PAX8 transcriptional activity inhibition in RMG-I – RMG-I cells, luciferase, cherry-pick, dose response (AID 687027).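 Also: luciferase reporter driven by Pax8 target thyroperoxidase promoter measured by SteadyGlo luminescence.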 The format is functional, cell-based.
Chain of Paired box protein Pax-8 (Q06710 whole entry): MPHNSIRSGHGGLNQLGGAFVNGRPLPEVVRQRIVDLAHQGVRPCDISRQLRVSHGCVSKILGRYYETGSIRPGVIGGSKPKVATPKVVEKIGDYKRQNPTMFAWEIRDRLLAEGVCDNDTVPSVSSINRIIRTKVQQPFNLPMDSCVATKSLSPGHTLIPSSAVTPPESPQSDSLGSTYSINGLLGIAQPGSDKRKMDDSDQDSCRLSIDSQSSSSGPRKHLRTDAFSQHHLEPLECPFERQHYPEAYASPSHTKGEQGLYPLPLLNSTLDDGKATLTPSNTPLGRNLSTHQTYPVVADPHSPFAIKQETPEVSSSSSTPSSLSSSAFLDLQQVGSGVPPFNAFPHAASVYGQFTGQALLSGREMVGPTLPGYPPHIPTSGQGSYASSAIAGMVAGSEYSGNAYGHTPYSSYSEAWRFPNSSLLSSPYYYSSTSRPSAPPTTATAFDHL
Data set [4] can be described thus: A cytotoxicity screen of small molecule inhibitors of the PhoP region in Salmonella typhi identified in the primary screen. [Related pubchem assays: 1850, 1864, 1985 ]. Format: functional.
The target of data set [5] is Disintegrin and metalloproteinase domain-containing protein 17 (Homo sapiens, UniProt P78536). Nature of the data set: exosite inhibitors of ADAM17, dose response, biochemical (AID 743260).
Chain of Disintegrin and metalloproteinase domain-containing protein 17 (P78536 whole entry, the tested form may be a part): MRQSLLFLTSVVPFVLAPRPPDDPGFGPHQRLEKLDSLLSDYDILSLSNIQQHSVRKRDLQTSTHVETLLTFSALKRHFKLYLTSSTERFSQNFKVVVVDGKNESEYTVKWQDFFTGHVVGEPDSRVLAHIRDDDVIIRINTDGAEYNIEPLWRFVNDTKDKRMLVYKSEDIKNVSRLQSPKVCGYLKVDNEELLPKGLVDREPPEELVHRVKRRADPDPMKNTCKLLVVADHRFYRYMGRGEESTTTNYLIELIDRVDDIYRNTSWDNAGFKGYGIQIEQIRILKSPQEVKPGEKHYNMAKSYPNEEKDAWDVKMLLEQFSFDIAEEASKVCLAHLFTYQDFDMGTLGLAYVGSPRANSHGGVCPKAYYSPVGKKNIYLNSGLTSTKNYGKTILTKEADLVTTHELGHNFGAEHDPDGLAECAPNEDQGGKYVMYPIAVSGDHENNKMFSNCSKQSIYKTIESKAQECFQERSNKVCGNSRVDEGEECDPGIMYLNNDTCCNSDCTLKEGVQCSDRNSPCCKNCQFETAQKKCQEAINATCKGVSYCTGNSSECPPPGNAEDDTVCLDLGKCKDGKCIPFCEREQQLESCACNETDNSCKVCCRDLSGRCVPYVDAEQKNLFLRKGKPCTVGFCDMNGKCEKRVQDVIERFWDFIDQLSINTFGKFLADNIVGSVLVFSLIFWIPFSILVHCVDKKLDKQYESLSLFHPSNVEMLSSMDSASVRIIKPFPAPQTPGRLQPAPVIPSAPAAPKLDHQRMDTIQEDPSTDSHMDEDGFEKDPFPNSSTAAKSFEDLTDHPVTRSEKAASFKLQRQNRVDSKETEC

Each structure is given as a SMILES string. Activity calls are given as the source filed them.

In the case of `CCC(=O)NCCc1nc2cc(NC(=O)c3ccc(Cl)cc3)ccc2n1C`, the AC50 (usually the concentration giving half of the maximal activity seen) with HeLa is 250 µM (active).
For `COc1ccc(N(CC(=O)NCc2ccc(Cl)cc2)S(=O)(=O)c2ccccc2[N+](=O)[O-])c(OC)c1`, the AC50 in the data set with Escherichia coli is 23.3 µM (active).
The same measure, in the same setting: as for `Cc1ccc(C)c(N2CCN(c3ccc4cc(S(=O)(=O)N5CCCCC5)ccc4n3)CC2)c1`, the figure is 27.6 µM (active).
For the compound `CCNc1ncc2nc(-c3ccc(Cl)cc3)c(=O)n(Cc3ccc(F)cc3)c2n1`, the values for the AC50 on Cytochrome P450 1A2, at Cytochrome P450 3A4 and at Cytochrome P450 2C19 were 12.6 µM (inconclusive), “inconclusive” and “inconclusive”, respectively.
As for `FC(F)Oc1ccc(NC(S)=NCc2nc3ccccc3[nH]2)cc1`, the IC50 (on Exodeoxyribonuclease V; in [1]) was > 119 µM (inactive) in each case.
For `Cc1cc(C(=O)CN2C(=O)NC3(CCCCC3C)C2=O)c(C)n1Cc1cccs1` (centres undefined), the AC50 in the data set with HeLa is > 350 µM (inactive).
For the compound `Cc1ccc(NC(=O)CSCC(=O)Nc2ccccc2N2CCCCC2)cc1`, the EC50 in the data set on HEK293 [2] and in the data set with HEK293 [3] was > 59.6 µM (inactive) each time.
In the case of `Cc1ccc(S(=O)(=O)NCC2CCC(C(=O)O)CC2)cc1` (centres undefined), the values for the AC50 result at Cytochrome P450 3A4 and on Cytochrome P450 2C9 were “inconclusive” and 100 nM (inconclusive), respectively.
In the case of `O=C(CNc1cccc(F)c1)N1CCc2ccccc2C1`, in the data set on HeLa, the AC50 was 157 µM (active).
As for `O=C(CCc1nc2cccnc2n1Cc1ccccc1)N1CCOCC1`, the AC50 in the data set on Escherichia coli is 28.4 µM (active).
Regarding `COc1ccccc1NC(=O)N1CCC(c2nnc(SCC(N)=O)n2C)CC1`, the AC50 entry at Cytochrome P450 3A4 and at Cytochrome P450 2C19 was “inconclusive” in each case.
For `CCCCCC(CC(=O)NO)C(=O)NC(C(=O)N1CCCC1CO)C(C)C` (centres undefined), on Paired box protein Pax-8, the AC50 was 5.27 µM (active). Besides, the IC50 (as a rule, the midpoint of a concentration-inhibition curve) at Exodeoxyribonuclease V is > 39.5 µM (inactive); in data set [1], 77.6 µM (inactive); in data set [5], 3.59 µM (active). Moreover, the EC50 (as a rule, the concentration needed to bring the measured effect to its halfway point) in [4] was > 50 µM (active).
As for `CCOC(=O)c1c(CSc2ccccc2)n(C)c2cc(Br)c(O)c(CN(C)C)c12` [UMIFENOVIR], the EC50 in the data set on HEK293 [2] and in the data set with HEK293 [3] was > 59.7 µM (inactive) throughout.

These data come from ChEMBL document CHEMBL1201862, “PubChem BioAssay data set” (2004).
